Laboratory results taken from patent US11849727B2, “Synergistic formulations for control and repellency of biting arthropods” (Bedoukian Research, Inc., priority 2013, dated 2023).

Tested on: Aedes aegypti
Experiment: Arm in Cage testing on human subjects (modified WHO - Nigel Hill protocol), dose response
Format: in vivo
Details: individual component, LDP Line dose response curve
Protocol: A Modified WHO-[…] protocol was used for Dose Response curve generation. Three concurrent repetitions were conducted with 4 subjects (2 male, 2 female). Approximately 60 non blood-fed, female Aedes aegypti mosquitoes were placed in a 12''×12''×12'' (28316.85 cm^3) plexi and screen cage. […] Arms were inserted into the first cage for 30 seconds, with number of landings (with intent to bite) recorded at the end of the time interval. The same procedure was used for the 2nd and 3rd cage in succession. Control arm was inserted first, followed by the opposite arm treated with ethanol only (as a treatment control). The 'treatment arm' is then treated with dose 1 and inserted, then dose 2, dose 3, and so on. After complete protection was achieved, control arm was reinserted to verify continued activity. Percent repellency was calculated by utilizing the formula [{(C-T)/C}*100]. Where C=the number of mosquitoes landing with intent to bite on the ethanol only treated arm, and T=the number of mosquitoes landing with intent to bite on the 'repellent' treated arm. LDP Line® software (Bakr, E 2007) was used to determine ED50 (effective dose to repel 50%) and compare materials. […] Significance was determined by the use of 95% confidence intervals. […]

## CCN(CC)C(=O)c1cccc(C)c1 [DEET, N,N-Diethyl-m-toluamide]
  percent dose required to generate an ED25 (25% repellency): 0.035%
